Measurements published in patent publication US20240246950A1, “Anilino-Pyrazole Derivatives, Compositions and Methods Thereof” (Ensem Therapeutics, priority 2022, published 2024).
Read-outs that look alike come from different tables or passages of the source.

Legend:
TOV21G = assay: Cell proliferation (CyQUANT) TOV21G; format: cell-based; details: 7 days, read-out: Anti-proliferation assay: IC50 (nM) [Cell Line: TOV21G]
Method in brief: (§1)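 Cells were seeded at 2500, 1000 or 3000 cells/well, cultured overnight, then exposed to 3-fold compound dilutions for 7 days (final DMSO at most 0.01%). CyQUANT fluorescence was read at Ex/Em 480/520 nm; % inhibition computed relative to same-plate DMSO wells.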

CDK1/cyclinB = CDK1/cyclinB (Homo sapiens, UniProt P06493); assay: In vitro kinase TR-FRET assay CDK1/cyclinB; format: biochemical; details: enzyme 0.3 nM, ATP 56 μM
Method in brief: (§2)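 Enzymes at 3 nM (CDK2/CycA2), 0.6 nM (CDK2/CycE1), 0.3 nM (CDK1/cyclinB), 0.6 nM (GSK3β) with ATP at 27, 82, 56, 7.6 μM respectively, 50 nM ULight-4E-BP1 peptide, HEPES pH7.5; 10-point 3-fold dilutions. 1 h reaction at room temperature; Eu-anti-phospho-4E-BP1 TR-FRET (665/615 nm) read; IC50 from dose-response curves.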

CDK2/CycE1 = CDK2/CycE1 (Homo sapiens, UniProt P24941); assay: In vitro kinase TR-FRET assay CDK2/CycE1; format: biochemical; details: enzyme 0.6 nM, ATP 82 μM, read-out: CDK2 cyclinE1 activity assay: IC50
Method in brief: as §2

OVCAR3 = assay: Cell proliferation (CyQUANT) OVCAR3; format: cell-based; details: OVCAR3, 7 days, read-out: Anti-proliferation assay: IC50 (nM) [Cell Line: OVCAR3]
Method in brief: as §1

CDK2/CycA2 = CDK2/CycA2 (Homo sapiens, UniProt P24941); assay: In vitro kinase TR-FRET assay CDK2/CycA2; format: biochemical; details: enzyme 3 nM, ATP 27 μM, read-out: CDK2 cyclinA2 activity assay: IC50
Method in brief: as §2

GSK3β = GSK3β (Homo sapiens, UniProt P49841); assay: In vitro kinase TR-FRET assay GSK3β; format: biochemical; details: enzyme 0.6 nM, ATP 7.6 μM
Method in brief: as §2

Sequence of GSK3β (P49841 whole entry, species assumed): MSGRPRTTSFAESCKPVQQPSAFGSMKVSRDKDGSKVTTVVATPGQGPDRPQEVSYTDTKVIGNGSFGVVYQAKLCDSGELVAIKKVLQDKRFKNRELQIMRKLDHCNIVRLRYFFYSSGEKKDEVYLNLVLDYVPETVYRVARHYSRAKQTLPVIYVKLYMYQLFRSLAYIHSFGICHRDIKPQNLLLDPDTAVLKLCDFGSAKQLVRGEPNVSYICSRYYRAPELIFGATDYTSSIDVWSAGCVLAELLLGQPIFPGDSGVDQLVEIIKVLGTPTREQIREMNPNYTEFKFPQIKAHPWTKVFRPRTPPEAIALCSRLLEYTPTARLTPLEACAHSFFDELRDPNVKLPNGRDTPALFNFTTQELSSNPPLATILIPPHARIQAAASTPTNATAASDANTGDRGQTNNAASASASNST
Sequence of CDK1/cyclinB (P06493 whole entry): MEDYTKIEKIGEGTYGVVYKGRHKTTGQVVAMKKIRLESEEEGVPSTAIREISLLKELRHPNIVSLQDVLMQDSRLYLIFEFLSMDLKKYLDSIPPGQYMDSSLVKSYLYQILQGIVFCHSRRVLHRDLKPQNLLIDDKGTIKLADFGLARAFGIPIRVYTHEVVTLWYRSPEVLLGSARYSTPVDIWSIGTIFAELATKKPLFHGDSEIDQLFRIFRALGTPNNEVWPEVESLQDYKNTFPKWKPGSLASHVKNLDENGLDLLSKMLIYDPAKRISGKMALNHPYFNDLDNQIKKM
Sequence of CDK1/cyclinB (P14635 whole entry partner): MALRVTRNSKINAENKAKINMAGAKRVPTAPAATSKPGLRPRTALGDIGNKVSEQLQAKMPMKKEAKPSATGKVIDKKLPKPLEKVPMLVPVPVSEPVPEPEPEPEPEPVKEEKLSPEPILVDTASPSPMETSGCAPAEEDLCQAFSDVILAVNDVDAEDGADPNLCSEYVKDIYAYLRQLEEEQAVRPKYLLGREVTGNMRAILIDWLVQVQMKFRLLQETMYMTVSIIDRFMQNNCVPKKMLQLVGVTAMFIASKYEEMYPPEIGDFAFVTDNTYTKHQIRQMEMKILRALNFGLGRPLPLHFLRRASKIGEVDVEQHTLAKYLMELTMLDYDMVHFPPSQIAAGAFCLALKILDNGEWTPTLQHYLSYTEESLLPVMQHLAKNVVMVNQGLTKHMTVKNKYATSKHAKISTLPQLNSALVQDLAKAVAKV

Compound | IC50 (TOV21G; Homo sapiens, 168 h) [nM] | IC50 (CDK1/cyclinB) [nM] | IC50 (CDK2/CycE1) [nM] | IC50 (OVCAR3; Homo sapiens, OVCAR-3, 168 h) [nM] | IC50 (CDK2/CycA2) [nM] | IC50 (GSK3β) [nM] | IC50 (TOV21G) [nM] | IC50 (OVCAR3) [nM]
CC(C)NC(=O)O[C@@H]1CC[C@H](c2cc(Nc3cccc4c3CCN(C)S4(=O)=O)[nH]n2)C1 [Example 56, (1R,3S)-3-{5-[(2-methyl-1,1-dioxo-3,4-dihydro-2H-1λ6-benzo[2,1-e][1,2]thiazin-5-yl)amino]-1H-pyrazol-3-yl}cyclopentyl (prop-2-ylamino)methanoate] | ≥ 1000 | 50 to 500 | < 50 | ≤ 500 | < 50 | 50 to 500 |  | 
CC(C)NC(=O)O[C@@H]1CC[C@H](c2cc(Nc3nccc4c3CCS4(=O)=O)n[nH]2)C1 [Example 57, (1R,3S)-3-{5-[(1,1-dioxo-2,3-dihydro-1λ^6-thieno[3,2-c]pyridin-4-yl)amino]-2H-pyrazol-3-yl}cyclopentyl (prop-2-ylamino)methanoate] | 500 to 1000 | 50 to 500 | < 50 | ≤ 500 | < 50 | 50 to 500 |  | 
CC(C)NC(=O)O[C@@H]1CC[C@H](c2cc(Nc3ccc(Cl)c4c3CCCS4(=O)=O)n[nH]2)C1 [Example 58, (1R,3S)-3-(3-((8-chloro-1,1-dioxidothiochroman-5-yl)amino)-1H-pyrazol-5-yl)cyclopentyl isopropylcarbamate] | ≥ 1000 | 50 to 500 | < 50 | ≤ 500 | < 50 | 500 to 1000 |  | 
CC(C)NC(=O)O[C@@H]1CC[C@H](c2cc(Nc3cccc4c3CCCS4(=O)=O)n[nH]2)C1 [Example 59, (1R,3S)-3-(3-((1,1-dioxidothiochroman-5-yl)amino)-1H-pyrazol-5-yl)cyclopentyl isopropylcarbamate] | 500 to 1000 | 50 to 500 | < 50 | ≤ 500 | < 50 | 500 to 1000 |  | 
CC(C)NC(=O)O[C@@H]1CC[C@H](c2cc(Nc3ccc4c(c3F)CCS4(=O)=O)n[nH]2)C1 [Example 60, (1R,3S)-3-(3-((4-fluoro-1,1-dioxido-2,3-dihydrobenzo[b]thiophen-5-yl)amino)-1H-pyrazol-5-yl)cyclopentyl isopropylcarbamate] | ≥ 1000 | 50 to 500 | < 50 | ≤ 500 | < 50 | > 1000 |  | 
CC(C)NC(=O)O[C@@H]1CC[C@H](c2cc(Nc3cccc4c3CCNS4(=O)=O)n[nH]2)C1 [Example 61, (1R,3S)-3-(3-((1,1-dioxido-3,4-dihydro-2H-benzo[e][1,2]thiazin-5-yl)amino)-1H-pyrazol-5-yl)cyclopentyl isopropylcarbamate] | ≤ 500 | < 50 | < 50 | ≤ 500 | < 50 | 500 to 1000 |  | 
CC(C)NC(=O)O[C@@H]1CC[C@H](c2cc(Nc3cccc4c3CS(=O)(=O)CC4O)[nH]n2)C1 (stereo partly drawn) [Example 62, (1R,3S)-3-(5-((4-hydroxy-2,2-dioxidoisothiochroman-8-yl)amino)-1H-pyrazol-3-yl)cyclopentyl isopropylcarbamate] | ≥ 1000 | 50 to 500 | < 50 | ≤ 500 | < 50 | > 1000 |  | 
CC(C)NC(=O)O[C@@H]1CC[C@H](c2cc(Nc3cccc4c3CS(=O)(=O)CC4)n[nH]2)C1 [Example 63, (1R,3S)-3-(3-((2,2-dioxidoisothiochroman-8-yl)amino)-1H-pyrazol-5-yl)cyclopentyl isopropylcarbamate] | ≥ 1000 | 50 to 500 | < 50 | ≤ 500 | < 50 | > 1000 |  | 
CC(C)NC(=O)O[C@@H]1CC[C@H](c2cc(Nc3ccc(Cl)c4c3CCS4(=O)=O)n[nH]2)C1 [Example 64, (1R,3S)-3-(3-((7-chloro-1,1-dioxido-2,3-dihydrobenzo[b]thiophen-4-yl)amino)-1H-pyrazol-5-yl)cyclopentyl isopropylcarbamate] | ≥ 1000 | 50 to 500 | < 50 | ≤ 500 | < 50 | 50 to 500 |  | 
Cc1ccc(Nc2cc([C@H]3CC[C@@H](OC(=O)NC(C)C)C3)[nH]n2)c2c1S(=O)(=O)CC2 [Example 65, (1R,3S)-3-(3-((7-methyl-1,1-dioxido-2,3-dihydrobenzo[b]thiophen-4-yl)amino)-1H-pyrazol-5-yl)cyclopentyl isopropylcarbamate] | 500 to 1000 | 50 to 500 | < 50 | ≤ 500 | < 50 | 50 to 500 |  | 
CC(C)NC(=O)O[C@@H]1CC[C@H](c2cc(Nc3ccc(F)c4c3CNS4(=O)=O)[nH]n2)C1 [Example 66, (1R,3S)-3-(5-((7-fluoro-1,1-dioxido-2,3-dihydrobenzo[d]isothiazol-4-yl)amino)-1H-pyrazol-3-yl)cyclopentyl isopropylcarbamate] | ≥ 1000 | < 50 | < 50 | ≤ 500 | < 50 | 50 to 500 |  | 
CC(C)NC(=O)O[C@@H]1CC[C@H](c2cc(Nc3ccc(F)c4c3CN(C)S4(=O)=O)n[nH]2)C1 [Example 67, (1R,3S)-3-{5-[(7-fluoro-2-methyl-1,1-dioxo-2,3-dihydro-1λ^6-benzo[2,1-d][1,2]thiazol-4-yl)amino]-2H-pyrazol-3-yl}cyclopentyl (prop-2-ylamino)methanoate] | ≥ 1000 | 50 to 500 | < 50 | ≤ 500 | < 50 | > 1000 |  | 
CC(C)(C)NC(=O)O[C@@H]1CC[C@H](c2cc(Nc3nccc4c3CCS4(=O)=O)n[nH]2)C1 [Example 68, (1R,3S)-3-(3-((1,1-dioxido-2,3-dihydrothieno[3,2-c]pyridin-4-yl)amino)-1H-pyrazol-5-yl)cyclopentyl tert-butylcarbamate] | ≤ 500 | < 50 | < 50 | ≤ 500 | < 50 | 50 to 500 |  | 
CC(C)NC(=O)O[C@H]1CC[C@@H](c2cc(Nc3nccc4c3CCS4(=O)=O)n[nH]2)CC1 [Example 69, (1s,4s)-4-{5-[(1,1-dioxo-2,3-dihydro-1λ^6-thieno[3,2-c]pyridin-4-yl)amino]-1H-pyrazol-3-yl}cyclohexyl (prop-2-ylamino)methanoate] | ≥ 1000 | 50 to 500 | < 50 | 500 to 1000 | < 50 | > 1000 |  | 
CC(C)NC(=O)O[C@H]1C[C@@H](c2cc(Nc3nccc4c3CCS4(=O)=O)n[nH]2)C1 [Example 70, (1s,3s)-3-(3-((1,1-dioxido-2,3-dihydrothieno[3,2-c]pyridin-4-yl)amino)-1H-pyrazol-5-yl)cyclobutyl isopropylcarbamate] | ≤ 500 | < 50 | < 50 | ≤ 500 | < 50 | < 50 |  | 
(1s,4s)-4-{5-[(1,1-dioxo-2,3-dihydro-1λ^6-benzothiophen-5-yl)amino]-2H-pyrazol-3-yl}cyclohexyl (prop-2-ylamino)methanoate [Example 16] |  | 50 to 500 | < 50 |  | < 50 | 500 to 1000 | ≥ 1000 | ≤ 500
